In ChEMBL document CHEMBL4507266, “Data for DCP probe BAY-784” (2021):

Key:
[1] = molecular target: Transient receptor potential cation channel subfamily M member 6 (Homo sapiens) (UniProt Q9BX84); conditions: Compound concentration 1000.0 nM
[2] = molecular target: Tyrosine-protein kinase JAK1 (Homo sapiens) (UniProt P23458); conditions: Compound concentration 1000.0 nM
[3] = molecular target: RAC-alpha serine/threonine-protein kinase (Homo sapiens) (UniProt P31749); conditions: Compound concentration 1000.0 nM
[4] = molecular target: Mitogen-activated protein kinase kinase kinase 9 (Homo sapiens) (UniProt P80192); conditions: Compound concentration 1000.0 nM
[5] = molecular target: Mitogen-activated protein kinase kinase kinase 20 (Homo sapiens) (UniProt Q9NYL2); conditions: Compound concentration 1000.0 nM
[6] = system: Phosphatidylinositol 4,5-bisphosphate 3-kinase catalytic subunit alpha isoform (Homo sapiens), P42336 [C420R]; conditions: Compound concentration 1000.0 nM
[7] = molecular target: AP2-associated protein kinase 1 (Homo sapiens) (UniProt Q2M2I8); conditions: Compound concentration 1000.0 nM
[8] = molecular target: Serine/threonine-protein kinase PLK2 (Homo sapiens) (UniProt Q9NYY3); conditions: Compound concentration 1000.0 nM
[9] = molecular target: T1, Alpha-1A adrenergic receptor (Homo sapiens) (UniProt P35348); conditions: Compound concentration 10.0 uM
T1 sequence (whole entry): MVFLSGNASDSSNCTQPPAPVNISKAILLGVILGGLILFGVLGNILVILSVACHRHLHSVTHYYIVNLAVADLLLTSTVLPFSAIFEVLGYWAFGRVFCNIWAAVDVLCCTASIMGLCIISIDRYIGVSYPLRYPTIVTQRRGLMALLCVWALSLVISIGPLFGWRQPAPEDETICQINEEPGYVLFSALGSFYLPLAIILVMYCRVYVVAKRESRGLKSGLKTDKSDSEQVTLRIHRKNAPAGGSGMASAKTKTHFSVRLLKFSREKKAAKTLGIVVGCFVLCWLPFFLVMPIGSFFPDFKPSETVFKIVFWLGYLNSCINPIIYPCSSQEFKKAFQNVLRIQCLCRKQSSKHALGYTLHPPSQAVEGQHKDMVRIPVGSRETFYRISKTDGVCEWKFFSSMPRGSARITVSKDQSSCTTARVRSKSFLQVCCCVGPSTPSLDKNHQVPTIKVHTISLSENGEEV

[10] = molecular target: Dual specificity mitogen-activated protein kinase kinase 1 (Homo sapiens) (UniProt Q02750); conditions: Compound concentration 1000.0 nM
[11] = molecular target: Receptor-interacting serine/threonine-protein kinase 2 (Homo sapiens) (UniProt O43353); conditions: Compound concentration 1000.0 nM
[12] = molecular target: Protein-tyrosine kinase 6 (Homo sapiens) (UniProt Q13882); conditions: Compound concentration 1000.0 nM
[13] = molecular target: Serine/threonine-protein kinase ULK3 (Homo sapiens) (UniProt Q6PHR2); conditions: Compound concentration 1000.0 nM
[14] = molecular target: Serine/threonine-protein kinase MAK (Homo sapiens) (UniProt P20794); conditions: Compound concentration 1000.0 nM
[15] = molecular target: Wee1-like protein kinase (Homo sapiens) (UniProt P30291); conditions: Compound concentration 1000.0 nM
[16] = molecular target: Casein kinase I isoform alpha-like (Homo sapiens) (UniProt Q8N752); conditions: Compound concentration 1000.0 nM
[17] = molecular target: Casein kinase II subunit alpha (Homo sapiens) (UniProt P68400); conditions: Compound concentration 1000.0 nM
[18] = molecular target: Serine/threonine-protein kinase pim-1 (Homo sapiens) (UniProt P11309); conditions: Compound concentration 1000.0 nM
[19] = molecular target: Tyrosine-protein kinase JAK2 (Homo sapiens) (UniProt O60674); conditions: Compound concentration 1000.0 nM
[20] = molecular target: Mitogen-activated protein kinase 6 (Homo sapiens) (UniProt Q16659); conditions: Compound concentration 1000.0 nM
[21] = molecular target: Serine/threonine-protein kinase Nek1 (Homo sapiens) (UniProt Q96PY6); conditions: Compound concentration 1000.0 nM
[22] = molecular target: Serine/threonine-protein kinase mTOR (Homo sapiens) (UniProt P42345); conditions: Compound concentration 1000.0 nM
[23] = molecular target: NUAK family SNF1-like kinase 2 (Homo sapiens) (UniProt Q9H093); conditions: Compound concentration 1000.0 nM
[24] = system: Tyrosine-protein kinase ABL1 (Homo sapiens), P00519 [M351T]; conditions: Compound concentration 1000.0 nM
[25] = molecular target: Serine/threonine-protein kinase 35 (Homo sapiens) (UniProt Q8TDR2); conditions: Compound concentration 1000.0 nM
[26] = molecular target: Delta-type opioid receptor (Homo sapiens) (UniProt P41143); conditions: Compound concentration 10.0 uM
[27] = system: Receptor-type tyrosine-protein kinase FLT3 (Homo sapiens), P36888 [UNDEFINED MUTATION]; conditions: Compound concentration 1000.0 nM
[28] = molecular target: Serine/threonine-protein kinase 24 (Homo sapiens) (UniProt Q9Y6E0); conditions: Compound concentration 1000.0 nM
[29] = molecular target: Dual specificity mitogen-activated protein kinase kinase 6 (Homo sapiens) (UniProt P52564); conditions: Compound concentration 1000.0 nM
[30] = molecular target: Serine/threonine-protein kinase D2 (Homo sapiens) (UniProt Q9BZL6); conditions: Compound concentration 1000.0 nM
[31] = molecular target: T2, Alpha-2A adrenergic receptor (Homo sapiens) (UniProt P08913); conditions: Compound concentration 10.0 uM
T2 sequence (whole entry): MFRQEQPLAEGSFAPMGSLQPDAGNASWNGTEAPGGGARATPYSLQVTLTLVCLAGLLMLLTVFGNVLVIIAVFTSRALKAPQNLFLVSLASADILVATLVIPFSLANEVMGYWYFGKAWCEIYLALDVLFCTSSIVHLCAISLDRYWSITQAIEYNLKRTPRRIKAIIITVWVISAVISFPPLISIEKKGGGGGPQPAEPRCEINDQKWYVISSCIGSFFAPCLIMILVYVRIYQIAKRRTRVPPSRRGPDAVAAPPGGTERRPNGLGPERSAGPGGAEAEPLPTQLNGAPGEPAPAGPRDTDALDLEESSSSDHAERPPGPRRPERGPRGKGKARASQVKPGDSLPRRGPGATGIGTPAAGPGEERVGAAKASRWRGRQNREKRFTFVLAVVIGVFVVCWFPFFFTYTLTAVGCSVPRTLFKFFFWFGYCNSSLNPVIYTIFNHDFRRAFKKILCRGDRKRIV

[32] = molecular target: Phosphatidylinositol 3-kinase catalytic subunit type 3 (Homo sapiens) (UniProt Q8NEB9); conditions: Compound concentration 1000.0 nM

Mitogen-activated protein kinase kinase kinase 9 (Homo sapiens), sequence (P80192 whole entry, looked up): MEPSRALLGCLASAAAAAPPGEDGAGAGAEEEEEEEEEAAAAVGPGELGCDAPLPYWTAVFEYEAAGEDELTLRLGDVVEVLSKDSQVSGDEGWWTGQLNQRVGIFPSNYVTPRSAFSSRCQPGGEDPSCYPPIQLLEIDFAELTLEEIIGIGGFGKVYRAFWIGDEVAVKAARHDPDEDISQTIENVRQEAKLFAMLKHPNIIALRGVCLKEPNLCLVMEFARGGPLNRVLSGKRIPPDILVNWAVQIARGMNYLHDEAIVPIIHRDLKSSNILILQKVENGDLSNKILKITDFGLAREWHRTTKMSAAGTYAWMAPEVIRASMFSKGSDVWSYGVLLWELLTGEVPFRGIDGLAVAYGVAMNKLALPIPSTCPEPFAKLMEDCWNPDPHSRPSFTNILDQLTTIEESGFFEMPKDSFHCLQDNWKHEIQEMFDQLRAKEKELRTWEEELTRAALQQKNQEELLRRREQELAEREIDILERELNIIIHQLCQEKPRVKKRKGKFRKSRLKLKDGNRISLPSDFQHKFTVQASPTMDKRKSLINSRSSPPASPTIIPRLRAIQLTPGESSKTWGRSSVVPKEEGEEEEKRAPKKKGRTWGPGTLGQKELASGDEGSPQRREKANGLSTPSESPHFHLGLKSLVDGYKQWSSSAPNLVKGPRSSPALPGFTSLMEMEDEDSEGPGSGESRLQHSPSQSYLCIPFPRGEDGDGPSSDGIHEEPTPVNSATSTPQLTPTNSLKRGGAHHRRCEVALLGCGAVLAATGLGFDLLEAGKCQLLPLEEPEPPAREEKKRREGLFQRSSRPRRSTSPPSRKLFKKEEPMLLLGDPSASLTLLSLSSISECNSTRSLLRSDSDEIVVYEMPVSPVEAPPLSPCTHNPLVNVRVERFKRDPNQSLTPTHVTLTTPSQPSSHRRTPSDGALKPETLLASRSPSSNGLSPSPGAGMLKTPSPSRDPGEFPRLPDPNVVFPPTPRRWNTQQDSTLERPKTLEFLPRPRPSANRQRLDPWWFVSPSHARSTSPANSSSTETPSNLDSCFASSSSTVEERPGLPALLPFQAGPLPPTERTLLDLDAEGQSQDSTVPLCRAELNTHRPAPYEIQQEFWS
Serine/threonine-protein kinase Nek1 (Homo sapiens), sequence (Q96PY6 whole entry): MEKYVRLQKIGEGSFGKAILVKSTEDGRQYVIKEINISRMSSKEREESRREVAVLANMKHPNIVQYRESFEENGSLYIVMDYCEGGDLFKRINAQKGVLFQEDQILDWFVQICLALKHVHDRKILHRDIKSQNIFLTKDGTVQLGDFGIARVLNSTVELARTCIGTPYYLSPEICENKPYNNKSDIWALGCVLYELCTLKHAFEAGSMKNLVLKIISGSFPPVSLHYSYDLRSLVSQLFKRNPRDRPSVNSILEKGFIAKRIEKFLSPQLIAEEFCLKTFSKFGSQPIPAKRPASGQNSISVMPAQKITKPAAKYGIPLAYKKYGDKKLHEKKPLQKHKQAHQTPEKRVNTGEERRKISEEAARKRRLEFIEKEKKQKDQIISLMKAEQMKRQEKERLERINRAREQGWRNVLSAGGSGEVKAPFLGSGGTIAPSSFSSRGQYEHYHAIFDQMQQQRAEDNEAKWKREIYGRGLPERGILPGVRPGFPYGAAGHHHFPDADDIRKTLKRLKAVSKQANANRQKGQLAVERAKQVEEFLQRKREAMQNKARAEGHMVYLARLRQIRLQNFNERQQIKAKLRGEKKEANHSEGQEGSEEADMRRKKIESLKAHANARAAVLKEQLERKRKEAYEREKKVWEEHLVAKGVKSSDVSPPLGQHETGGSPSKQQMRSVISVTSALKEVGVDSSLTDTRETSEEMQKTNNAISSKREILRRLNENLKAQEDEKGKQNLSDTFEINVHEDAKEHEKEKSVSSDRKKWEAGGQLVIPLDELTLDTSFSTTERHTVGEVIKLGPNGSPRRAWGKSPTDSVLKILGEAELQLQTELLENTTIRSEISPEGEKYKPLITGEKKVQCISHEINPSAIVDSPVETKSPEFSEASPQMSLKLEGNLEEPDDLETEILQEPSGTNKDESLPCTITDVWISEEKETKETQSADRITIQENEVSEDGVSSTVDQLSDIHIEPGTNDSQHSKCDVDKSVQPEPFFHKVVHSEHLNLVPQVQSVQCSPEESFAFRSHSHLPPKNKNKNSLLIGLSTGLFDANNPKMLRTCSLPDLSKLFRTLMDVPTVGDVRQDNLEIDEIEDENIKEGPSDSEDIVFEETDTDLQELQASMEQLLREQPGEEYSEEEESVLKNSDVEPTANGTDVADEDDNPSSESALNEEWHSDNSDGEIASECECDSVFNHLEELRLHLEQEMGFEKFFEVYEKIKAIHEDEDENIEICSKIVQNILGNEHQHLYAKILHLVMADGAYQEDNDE
Serine/threonine-protein kinase 24 (Homo sapiens), sequence (Q9Y6E0 whole entry, looked up): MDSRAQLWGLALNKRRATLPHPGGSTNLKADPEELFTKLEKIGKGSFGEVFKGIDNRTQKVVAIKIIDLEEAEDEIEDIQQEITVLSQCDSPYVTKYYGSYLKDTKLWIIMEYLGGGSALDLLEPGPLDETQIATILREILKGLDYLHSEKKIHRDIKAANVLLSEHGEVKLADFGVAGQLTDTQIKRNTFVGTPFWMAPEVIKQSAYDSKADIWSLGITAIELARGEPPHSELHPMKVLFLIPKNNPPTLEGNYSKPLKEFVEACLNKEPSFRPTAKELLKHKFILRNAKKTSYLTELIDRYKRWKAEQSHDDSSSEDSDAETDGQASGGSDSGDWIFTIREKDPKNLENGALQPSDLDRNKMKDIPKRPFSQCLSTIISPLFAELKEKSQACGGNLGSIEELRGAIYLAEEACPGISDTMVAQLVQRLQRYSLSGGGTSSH
Serine/threonine-protein kinase D2 (Homo sapiens), sequence (Q9BZL6 whole entry): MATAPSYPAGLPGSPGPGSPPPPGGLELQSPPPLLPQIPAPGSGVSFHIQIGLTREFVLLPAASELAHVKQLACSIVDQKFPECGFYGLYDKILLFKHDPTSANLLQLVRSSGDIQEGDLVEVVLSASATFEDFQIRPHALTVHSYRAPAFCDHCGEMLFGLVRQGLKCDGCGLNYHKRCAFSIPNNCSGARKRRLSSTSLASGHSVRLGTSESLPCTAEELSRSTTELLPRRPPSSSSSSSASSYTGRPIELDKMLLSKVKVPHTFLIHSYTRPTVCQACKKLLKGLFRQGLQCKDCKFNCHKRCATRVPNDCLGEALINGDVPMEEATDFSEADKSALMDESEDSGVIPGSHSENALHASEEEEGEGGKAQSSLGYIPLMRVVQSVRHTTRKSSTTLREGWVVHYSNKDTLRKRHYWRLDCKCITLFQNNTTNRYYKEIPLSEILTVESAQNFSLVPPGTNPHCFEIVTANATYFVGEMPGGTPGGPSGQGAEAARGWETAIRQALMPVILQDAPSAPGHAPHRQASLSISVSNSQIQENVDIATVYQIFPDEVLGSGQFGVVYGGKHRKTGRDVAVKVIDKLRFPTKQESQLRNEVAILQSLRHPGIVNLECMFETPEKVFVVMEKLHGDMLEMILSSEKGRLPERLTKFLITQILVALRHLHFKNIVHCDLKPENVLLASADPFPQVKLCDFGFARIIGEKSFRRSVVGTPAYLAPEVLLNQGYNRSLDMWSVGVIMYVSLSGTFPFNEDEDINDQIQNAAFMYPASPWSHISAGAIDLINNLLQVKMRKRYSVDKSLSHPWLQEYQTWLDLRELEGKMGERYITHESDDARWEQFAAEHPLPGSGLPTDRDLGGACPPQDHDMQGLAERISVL
Mitogen-activated protein kinase kinase kinase 20 (Homo sapiens), sequence (Q9NYL2 2-800 limits assumed): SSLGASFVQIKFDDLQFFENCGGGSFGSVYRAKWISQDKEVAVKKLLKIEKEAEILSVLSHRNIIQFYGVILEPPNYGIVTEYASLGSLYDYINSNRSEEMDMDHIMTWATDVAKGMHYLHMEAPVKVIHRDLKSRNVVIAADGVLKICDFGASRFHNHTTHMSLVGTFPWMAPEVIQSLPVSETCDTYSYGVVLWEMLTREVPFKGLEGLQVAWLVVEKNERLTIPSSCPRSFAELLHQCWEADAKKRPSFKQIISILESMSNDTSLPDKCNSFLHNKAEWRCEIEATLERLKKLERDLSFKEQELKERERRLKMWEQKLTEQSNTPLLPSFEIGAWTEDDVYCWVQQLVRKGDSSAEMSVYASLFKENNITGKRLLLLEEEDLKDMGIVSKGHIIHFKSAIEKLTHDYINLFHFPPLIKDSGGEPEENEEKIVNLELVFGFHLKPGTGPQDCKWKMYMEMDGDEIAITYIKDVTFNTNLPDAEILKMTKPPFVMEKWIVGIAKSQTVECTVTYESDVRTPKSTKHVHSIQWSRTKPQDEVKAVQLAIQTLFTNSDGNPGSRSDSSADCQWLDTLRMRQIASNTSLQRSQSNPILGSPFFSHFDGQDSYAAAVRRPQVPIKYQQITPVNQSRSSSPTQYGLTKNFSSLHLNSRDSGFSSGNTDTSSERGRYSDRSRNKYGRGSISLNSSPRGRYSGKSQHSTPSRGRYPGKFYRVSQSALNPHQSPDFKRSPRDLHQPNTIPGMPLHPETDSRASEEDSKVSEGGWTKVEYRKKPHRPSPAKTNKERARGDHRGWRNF
Delta-type opioid receptor (Homo sapiens), sequence (P41143 whole entry): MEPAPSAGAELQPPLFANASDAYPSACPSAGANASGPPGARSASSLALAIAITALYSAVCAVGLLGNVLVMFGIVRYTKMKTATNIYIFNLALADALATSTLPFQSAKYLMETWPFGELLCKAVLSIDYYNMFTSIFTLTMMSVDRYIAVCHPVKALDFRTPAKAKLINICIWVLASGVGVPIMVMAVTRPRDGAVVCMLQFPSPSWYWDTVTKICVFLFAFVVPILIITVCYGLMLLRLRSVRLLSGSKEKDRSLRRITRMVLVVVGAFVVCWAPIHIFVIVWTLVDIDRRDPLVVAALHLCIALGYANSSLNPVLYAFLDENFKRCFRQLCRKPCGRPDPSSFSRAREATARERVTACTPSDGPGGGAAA

O=C(NCc1ncc(C(F)(F)F)cc1Cl)c1ccc2c(c1)C1(CCS(=O)(=O)CC1)[C@H](C1CC1)N2S(=O)(=O)c1ccc(F)cc1 [BAY-784]
inactive: residual activity [1] 81% | residual activity [2] 86% | residual activity [3] 96% | residual activity [4] 100% | residual activity [5] 100% | residual activity [6] 77% | residual activity [7] 99% | residual activity [8] 76% | inhibition [9] -0.32% | residual activity [10] 98% | residual activity [11] 100% | residual activity [12] 100% | residual activity [13] 85% | residual activity [14] 100% | residual activity [15] 82% | residual activity [16] 95% | residual activity [17] 66% | residual activity [18] 100% | residual activity [19] 80% | residual activity [20] 87% | residual activity [21] 100% | residual activity [22] 100% | residual activity [23] 81% | residual activity [24] 91% | residual activity [25] 100% | inhibition [26] -0.34% | residual activity [27] 100% | residual activity [28] 100% | residual activity [29] 100% | residual activity [30] 98% | inhibition [31] -5.62% | residual activity [32] 86%

O=C(NCc1ncc(C(F)(F)F)cc1Cl)c1ccc2c(c1)C1(CCS(=O)(=O)CC1)[C@@H](C1CC1)N2S(=O)(=O)c1ccc(F)cc1 [BAY-786]
inactive: residual activity [1] 92% | residual activity [2] 85% | residual activity [3] 94% | residual activity [4] 77% | residual activity [5] 92% | residual activity [6] 77% | residual activity [7] 100% | residual activity [8] 74% | inhibition [9] 1.7% | residual activity [10] 91% | residual activity [11] 100% | residual activity [12] 94% | residual activity [13] 69% | residual activity [14] 89% | residual activity [15] 100% | residual activity [16] 100% | residual activity [17] 67% | residual activity [18] 74% | residual activity [19] 70% | residual activity [20] 86% | residual activity [21] 96% | residual activity [22] 92% | residual activity [23] 75% | residual activity [24] 94% | residual activity [25] 93% | inhibition [26] -2.65% | residual activity [27] 79% | residual activity [28] 100% | residual activity [29] 100% | residual activity [30] 90% | inhibition [31] 6.57% | residual activity [32] 89%
